Assay results: publication PMC6627469 (Journal of Medicinal Chemistry, 2019)
Entries after “also recorded” stand apart in the source; their conditions may differ.

Key:
[1] = system: Influenza A virus WU95 (containing a H3 protein of a human H3N2 virus); assay type: binding
H3-containg WU95 virus = assay: Hemagglutination inhibition; assay type: cell-based, Influenza A virus; settings: relative to the potency of 8, corrected for valency
IAV WU95 = assay type: cell-based, Influenza A virus

Row | Compound | rel pot. (BLI) [1] | rel pot. per sugar (BLI) [1] | rel pot. per sugar (HAI) (H3-containg WU95 virus) | IC50 BLI [1] | effect on infection, single agent (IAV WU95)
1 | C#CCO[C@@H]1O[C@H](CO)[C@@H](O[C@@H]2O[C@H](CO[C@]3(C(=O)O)C[C@H](O)[C@@H](NC(C)=O)[C@H]([C@H](O)[C@H](O)CO)O3)[C@H](O)[C@H](O)[C@H]2O)[C@H](O)[C@H]1NC(C)=O [Compound 7] | 1 (1) | 1 (1) | – | – | –
2 | CC(=O)N[C@H]1[C@H]([C@H](O)[C@H](O)CO)O[C@@](OC[C@H]2O[C@@H](O[C@H]3[C@H](O)[C@@H](O)[C@H](OCc4cn(CCCC(=O)Nc5cccc(-c6cc(-c7cccc(NC(=O)CCCn8cc(CO[C@@H]9O[C@H](CO)[C@@H](O[C@@H]%10O[C@H](CO[C@]%11(C(=O)O)C[C@H](O)[C@@H](NC(C)=O)[C@H]([C@H](O)[C@H](O)CO)O%11)[C@H](O)[C@H](O)[C@H]%10O)[C@H](O)[C@H]9O)nn8)c7)cc(-c7cccc(NC(=O)CCCn8cc(CO[C@@H]9O[C@H](CO)[C@@H](O[C@@H]%10O[C@H](CO[C@]%11(C(=O)O)C[C@H](O)[C@@H](NC(C)=O)[C@H]([C@H](O)[C@H](O)CO)O%11)[C@H](O)[C@H](O)[C@H]%10O)[C@H](O)[C@H]9O)nn8)c7)c6)c5)nn4)O[C@@H]3CO)[C@H](O)[C@@H](O)[C@H]2O)(C(=O)O)C[C@@H]1O [Compound 10] | 20 (7) | 20 (7) | 2 | – | –
3 | CC(=O)N[C@H]1[C@H](O[C@H]2[C@@H](O)[C@@H](CO)O[C@@H](O[C@H]3[C@H](O)[C@@H](O)[C@H](n4cc(-c5ccc(-c6cn(CCCC(=O)Nc7cccc(-c8cc(-c9cccc(NC(=O)CCCn%10cc(-c%11ccc(-c%12cn([C@@H]%13O[C@H](CO)[C@@H](O[C@@H]%14O[C@H](CO)[C@H](O)[C@H](O[C@@H]%15O[C@H](CO)[C@@H](O[C@@H]%16O[C@H](CO)[C@H](O)[C@H](O)[C@H]%16O)[C@H](O)[C@H]%15NC(C)=O)[C@H]%14O)[C@H](O)[C@H]%13O)nn%12)cc%11)nn%10)c9)cc(-c9cccc(NC(=O)CCCn%10cc(-c%11ccc(-c%12cn([C@@H]%13O[C@H](CO)[C@@H](O[C@@H]%14O[C@H](CO)[C@H](O)[C@H](O[C@@H]%15O[C@H](CO)[C@@H](O[C@@H]%16O[C@H](CO)[C@H](O)[C@H](O)[C@H]%16O)[C@H](O)[C@H]%15NC(C)=O)[C@H]%14O)[C@H](O)[C@H]%13O)nn%12)cc%11)nn%10)c9)c8)c7)nn6)cc5)nn4)O[C@@H]3CO)[C@@H]2O)O[C@H](CO)[C@@H](O[C@@H]2O[C@H](CO)[C@H](O)[C@H](O)[C@H]2O)[C@@H]1O [Compound 13] | – | – | – | did not yield any detectable inhibition in the assay up to the 20 μM; also recorded: no inhib at 20 μM | –
4 | CC(=O)N[C@H]1[C@H]([C@H](O)[C@H](O)CO)O[C@@](OC[C@H]2O[C@@H](O[C@H]3[C@H](O)[C@@H](O)[C@H](OCc4cn([C@@H]5O[C@H](CO)[C@@H](n6cc(-c7ccc(-c8cn([C@H]9[C@H](O)[C@@H](O)[C@H](n%10cc(CO[C@@H]%11O[C@H](CO)[C@@H](O[C@@H]%12O[C@H](CO[C@]%13(C(=O)O)C[C@H](O)[C@@H](NC(C)=O)[C@H]([C@H](O)[C@H](O)CO)O%13)[C@H](O)[C@H](O)[C@H]%12O)[C@H](O)[C@H]%11O)nn%10)O[C@@H]9CO)nn8)cc7)nn6)[C@H](O)[C@H]5O)nn4)O[C@@H]3CO)[C@H](O)[C@@H](O)[C@H]2O)(C(=O)O)C[C@@H]1O [Compound 17] | 23 (12) | 23 (12) | – | – | –
5 | CCC(CC)O[C@@H]1C=C(C(=O)O)C[C@H](N)[C@H]1NC(C)=O [oseltamivir carboxylate] | – | – | – | – | little effect
